Data reported in publication PMC6336887, “Smallest near-infrared fluorescent protein evolved from cyanobacteriochrome as versatile tag for spectral multiplexing” (Nature Communications, 2019).

Legend:
NpR3784 GAF domain = target: T1, NpR3784 GAF domain (Nostoc punctiforme, UniProt B2J457); experiment: near-infrared fluorescence of E. coli co-expressing heme oxygenase; type: cell-based; details: weak binding; BV produced in the cells
T1 construct: gene Npun_R3784

miRFP670nano = target: T2, miRFP670nano (Nostoc punctiforme, UniProt B2J457, V48M/F66C/M67V/Y68F/P72E/S82A/A89S/N92K/Q96R/T98R/I113Y/G123N/H128Y/N140I/N158H/C160L/L177Q/Q180V, form not given); experiment: X-ray crystal structure, […] A; type: binding; details: covalent thioether, Cys86 to C3^1 of ring A; crystals at pH 4.0; BV from co-expressed heme oxygenase
T2 construct: gene Npun_R3784; single GAF domain, N-terminal alpha1-helix removed, 147 residues, 17 kDa, N-terminal polyhistidine tag, E. coli LMG194 co-expressing heme oxygenase, monomer

C=CC1=C(C)C(=Cc2[nH]c(C=C3N=C(C=C4NC(=O)C(C)=C4C=C)C(C)=C3CCC(=O)O)c(CCC(=O)O)c2C)NC1=O [biliverdin]
near-infrared fluorescence of E. coli co-expressing heme oxygenase (NpR3784 GAF domain): the GAF domain of NpR3784 CBCR | X-ray crystal structure, 1.95 A (miRFP670nano): BV is covalently attached by a thioether bond between the conserved for CBCRs Cys86 residue
